Data on four compounds can be found in paper PMC8235216, “Structural Evidence of Active Site Adaptability towards Different Sized Substrates of Aromatic Amino Acid Aminotransferase from Psychrobacter Sp. B6” (Materials, 2021).

What all share (assay type): binding
In assay [1] the target is T1, PsyArAT (psychrophilic aromatic amino acid aminotransferase) (Psychrobacter sp. B6, UniProt C7E5X4).
T1 construct: full-length Met1-Asp398, homodimer; E. coli; FOH/YOH/DOH complexes: protein as described previously; new construct: codon-optimised gene in pMCSG7, His6 tag removed by TEV, ArcticExpress (DE3)
T1 sequence (C7E5X4 entry or part of it): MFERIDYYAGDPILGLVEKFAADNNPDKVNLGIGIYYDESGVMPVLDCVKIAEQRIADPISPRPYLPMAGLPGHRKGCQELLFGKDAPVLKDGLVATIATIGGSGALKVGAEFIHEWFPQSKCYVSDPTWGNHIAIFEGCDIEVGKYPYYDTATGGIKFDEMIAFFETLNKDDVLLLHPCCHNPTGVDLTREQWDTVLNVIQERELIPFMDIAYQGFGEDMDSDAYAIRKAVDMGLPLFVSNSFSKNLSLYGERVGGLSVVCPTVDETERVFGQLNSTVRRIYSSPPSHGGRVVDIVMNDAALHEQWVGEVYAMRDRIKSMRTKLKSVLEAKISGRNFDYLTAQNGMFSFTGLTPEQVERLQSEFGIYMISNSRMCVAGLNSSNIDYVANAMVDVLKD
As to the kind of experiment: X-ray crystal structure (crystals grown in DL-malic acid). Conditions: active site, competitive inhibitor; 2.1 M DL-malic acid pH 7.0, 0.1 M Tris-HCl pH 7.5.

Assay [2] deals with T1, PsyArAT (psychrophilic aromatic amino acid aminotransferase). As to the kind of experiment: X-ray crystal structure (co-crystallisation). Conditions: active site, competitive inhibitor; both monomers; 20-fold molar excess of ligand; pH 7.5; partial PLP occupancy.
Assay [3] shares this target. As to the kind of experiment: X-ray crystal structure (soaking of native crystals). The following applies: active site, competitive inhibitor; bound in monomers A and C only; 10-fold molar excess of ligand, 5-fold PLP; pH 7.5.

As to `O=C(O)C[C@H](O)C(=O)O` [DOH, L-malic acid], the “X-ray crystal structure (crystals grown in DL-malic acid)” value in assay [1] is listed as “only L-malic acid (DOH) was bound in the active center”.

`O=C(O)[C@@H](O)Cc1ccccc1` [FOH, 3-phenyllactic acid]: the “X-ray crystal structure (co-crystallisation)” value in assay [2] is recorded as “carboxyl group of FOH creates two parallel hydrogen bonds with the guanidine group of Arg374”.

With `O=C(O)[C@@H](O)Cc1c[nH]c2ccccc12` [WOH, 3-indolelactic acid], in assay [3], the “X-ray crystal structure (soaking of native crystals)” value is “The carboxylic group of the WOH is planar to the Arg374 guanidine group”.

On to `O=C(O)[C@@H](O)Cc1ccc(O)cc1` [YOH, 3-(4-hydroxyphenyl)-lactic acid], for which the “X-ray crystal structure (co-crystallisation)” value in assay [2] is “interaction of the YOH inhibitor with the residues forming the active site of subunit A”.
